According to ChEMBL document CHEMBL4680273, “Teixobactin: A Paving Stone toward a New Class of Antibiotics?” (2020):
In brackets after ≈: the same amount, converted by molar mass. Blank lines part the entries; values can stand above or below the molecule they belong to.

Experiments:
Assay type in all cases: functional
Staphylococcus aureus [1] = assay: Antibacterial activity against methicillin resistant Staphylococcus aureus ATCC 33591 infected in iv dosed CD1 mouse model of septicemia assessed as protection against lethal infection administered as single dose starting from 1 hr post infection and measured 48 hrs post infection relative to control; details: ATCC 33591, iv, time 47 hrs, read-out: PD50
Staphylococcus aureus [2] = assay: Antibacterial activity against Staphylococcus aureus SH1000 incubated for 24 hrs by CLSI-broth microdilution method; details: Staphylococcus aureus, SH1000, read-out: MIC
Pseudomonas aeruginosa = assay: Antibacterial activity against Pseudomonas aeruginosa PAO1 incubated for 24 hrs in presence of colistin by Checkerboard assay
Bacillus spizizenii = assay: Antibacterial activity against Bacillus subtilis ATCC 6633 by M07-A9 CLSI method
Staphylococcus aureus [3] = assay: Antibacterial activity against methicillin resistant Staphylococcus aureus
Staphylococcus aureus [4] = assay: Antibacterial activity against methicillin resistant Staphylococcus aureus USA300
[5] = system: Staphylococcus epidermidis; assay: Antibacterial activity against Staphylococcus epidermidis ATCC 14990 incubated for 16 hrs by UV/Visible absorbance method
Streptococcus salivarius = assay: Antibacterial activity against Streptococcus salivarius ATCC 13419 incubated for 16 hrs by two-fold serial dilution method
Enterococcus durans = assay: Antibacterial activity against Enterococcus durans ATCC 6056 incubated for 16 hrs by two-fold serial dilution method
[6] = system: Staphylococcus epidermidis; assay: Antibacterial activity against Staphylococcus epidermidis ATCC 14990 incubated for 16 hrs by two-fold serial dilution method
Bacillus subtilis [7] = assay: Antibacterial activity against Bacillus subtilis ATCC 6051 incubated for 16 hrs by two-fold serial dilution method
Staphylococcus aureus [8] = assay: Antibacterial activity against Staphylococcus aureus ATCC 29213 incubated for 16 hrs by two-fold serial dilution method
Staphylococcus aureus [9] = assay: Antibacterial activity against Staphylococcus aureus ATCC 29213 incubated for 16 hrs by UV/Visible absorbance method
Bacillus subtilis [10] = assay: Antibacterial activity against Bacillus subtilis ATCC 6051 incubated for 24 hrs by CLSI based broth microdilution method
Staphylococcus aureus [11] = assay: Antibacterial activity against Staphylococcus aureus
Staphylococcus aureus [12] = assay: Antibacterial activity against Staphylococcus aureus 25923 incubated for 24 hrs by CLSI based broth microdilution method
Staphylococcus aureus [13] = assay: Antibacterial activity against methicillin- resistant Staphylococcus aureus TH4115 incubated for 16 to 20 hrs by CLSI-based broth microdilution method; details: time 16-20 hrs
Staphylococcus aureus [14] = assay: Antibacterial activity against Staphylococcus aureus TH4112 incubated for 16 to 20 hrs by CLSI-based broth microdilution method; details: time 16-20 hrs
Staphylococcus aureus [15] = assay: Antibacterial activity against Staphylococcus aureus ATCC 29213 incubated for 20 hrs by CLSI-based broth microdilution checkerboard method
Bacillus subtilis [16] = assay: Antibacterial activity against Bacillus subtilis ATCC 6051 incubated for 16 hrs by UV/Visible absorbance method
Staphylococcus aureus [17] = assay: Antibacterial activity against Staphylococcus aureus ATCC 29213
Staphylococcus aureus [18] = assay: Antibacterial activity against methicillin- resistant Staphylococcus aureus SA86

MIC (Staphylococcus aureus [2]): 8 µg/mL (≈ 6.43 µM) | MIC (Pseudomonas aeruginosa): 64 µg/mL
Structure (SMILES): CCCCC1NC(=O)[C@H](CCCNC(=N)N)NC(=O)[C@H](C)NC(=O)[C@H](NC(=O)[C@H](CO)NC(=O)[C@@H](NC(=O)[C@H](NC(=O)[C@@H](CCC(N)=O)NC(=O)[C@H](CO)NC(=O)[C@@H](NC(=O)[C@@H](Cc2ccccc2)NC)[C@@H](C)CC)[C@@H](C)CC)[C@@H](C)CC)[C@H](C)OC1=O (some centres undefined)

MIC [5]: 1 µg/mL (≈ 0.813 µM)
Structure (SMILES): CC[C@H](C)[C@@H]1NC(=O)[C@H](CCCNC(=N)N)NC(=O)[C@H](C)NC(=O)[C@H](NC(=O)[C@H](CO)NC(=O)[C@@H](NC(=O)[C@H](NC(=O)[C@@H](CCC(N)=O)NC(=O)[C@H](CO)NC(=O)[C@@H](NC(=O)[C@@H](Cc2ccccc2)NC)[C@@H](C)CC)[C@@H](C)CC)[C@@H](C)CC)CNC1=O

MIC (Streptococcus salivarius): 4 µg/mL (≈ 2.17 µM) | MIC (Enterococcus durans): 8 µg/mL (≈ 4.34 µM) | MIC [6]: 8 µg/mL (≈ 4.34 µM) | MIC (Bacillus subtilis [7]): 4 µg/mL (≈ 2.17 µM) | MIC (Staphylococcus aureus [8]): 8 µg/mL (≈ 4.34 µM)
Structure (SMILES): CC[C@H](C)[C@H](NC(=O)[C@@H](Cc1ccccc1)NC)C(=O)N[C@@H](CO)C(=O)N[C@H](CCC(N)=O)C(=O)N[C@@H](C(=O)N[C@H](C(=O)N[C@@H](CO)C(=O)N[C@H]1C(=O)N[C@@H](CCCCNS(=O)(=O)c2ccc(-c3c4ccc(=[N+](CC)CC)cc-4oc4cc(N(CC)CC)ccc34)c(S(=O)(=O)[O-])c2)C(=O)N[C@@H](CCCNC(=N)N)C(=O)N[C@@H]([C@@H](C)CC)C(=O)O[C@H]1C)[C@@H](C)CC)[C@@H](C)CC

MIC (Staphylococcus aureus [9]): 16 µg/mL (≈ 13 µM) | MIC [5]: 16 µg/mL (≈ 13 µM)
Structure (SMILES): CC[C@H](C)[C@H](NC(=O)[C@@H](Cc1ccccc1)NC)C(=O)N[C@@H](CO)C(=O)N(C)[C@H](CCC(N)=O)C(=O)N[C@@H](C(=O)N[C@H](C(=O)N[C@@H](CO)C(=O)N[C@H]1C(=O)N[C@@H](C)C(=O)N[C@@H](CCCCN)C(=O)N[C@@H]([C@@H](C)CC)C(=O)O[C@H]1C)[C@@H](C)CC)[C@@H](C)CC

MIC (Staphylococcus aureus [2]): 8 µg/mL (≈ 6.37 µM) | MIC (Pseudomonas aeruginosa): 32 µg/mL
Structure (SMILES): CCCCC1NC(=O)C(CCCC(F)(F)F)NC(=O)[C@H](C)NC(=O)[C@H](NC(=O)[C@H](CO)NC(=O)[C@@H](NC(=O)[C@H](NC(=O)[C@@H](CCC(N)=O)NC(=O)[C@H](CO)NC(=O)[C@@H](NC(=O)[C@@H](Cc2ccccc2)NC)[C@@H](C)CC)[C@@H](C)CC)[C@@H](C)CC)[C@H](C)OC1=O (some centres undefined)

MIC (Staphylococcus aureus [15]): 16 µg/mL
Structure (SMILES): CC[C@H](C)[C@H](NC(=O)[C@@H](Cc1ccccc1)NC)C(=O)N[C@@H](CO)C(=O)N[C@H](CCC(N)=O)C(=O)N[C@@H](C(=O)N(C)[C@H](C(=O)N[C@@H](CO)C(=O)N[C@H]1C(=O)N[C@@H](C)C(=O)N[C@@H](CCCCN)C(=O)N[C@@H]([C@@H](C)CC)C(=O)O[C@H]1C)[C@@H](C)CC)[C@@H](C)CC

MIC (Staphylococcus aureus [14]): 0.185 µg/mL (≈ 0.151 µM)
Structure (SMILES): CC[C@H](C)[C@@H]1NC(=O)[C@H](C[C@H]2CNC(=N)N2)NC(=O)[C@H](C)NC(=O)[C@H](NC(=O)[C@H](CO)NC(=O)[C@@H](NC(=O)[C@H](NC(=O)[C@@H](CCC(N)=O)NC(=O)[C@H](CO)NC(=O)[C@@H](NC(=O)[C@@H](Cc2ccccc2)NC)[C@@H](C)CC)[C@@H](C)CC)[C@@H](C)CC)CNC1=O

MIC [5]: 2 µg/mL (≈ 1.61 µM) | MIC (Bacillus subtilis [16]): 2 µg/mL (≈ 1.61 µM)
Structure (SMILES): CC[C@@H](C)[C@H](NC(=O)[C@H](CCC(N)=O)NC(=O)[C@@H](CO)NC(=O)[C@H](NC(=O)[C@H](Cc1ccccc1)NC)[C@H](C)CC)C(=O)N[C@@H](C(=O)N[C@H](CO)C(=O)N[C@@H]1C(=O)N[C@H](C)C(=O)N[C@H](CCCNC(=N)N)C(=O)N[C@H]([C@H](C)CC)C(=O)O[C@@H]1C)[C@H](C)CC

The remaining lines, values behind:

Structure (SMILES): CN[C@H](CC(C)C)C(=O)N[C@H]1C(=O)N[C@@H](CC(N)=O)C(=O)N[C@H]2C(=O)N[C@H]3C(=O)N[C@H](C(=O)N[C@H](C(=O)O)c4cc(O)cc(O)c4-c4cc3ccc4O)[C@H](O)c3ccc(c(Cl)c3)Oc3cc2cc(c3O[C@@H]2O[C@H](CO)[C@@H](O)[C@H](O)[C@H]2O[C@H]2C[C@](C)(N)[C@H](O)[C@H](C)O2)Oc2ccc(cc2Cl)[C@H]1O [VANCOMYCIN]
ED50 (Staphylococcus aureus [1]): 2.75 mg/kg

Structure (SMILES): CC[C@H](C)[C@H](NC(=O)[C@@H](Cc1ccccc1)NC)C(=O)N[C@@H](CO)C(=O)N[C@H](CCC(N)=O)C(=O)N[C@@H](C(=O)N[C@H](C(=O)N[C@@H](CO)C(=O)N[C@H]1C(=O)N[C@@H](C)C(=O)N[C@@H](Cc2ncc[nH]2)C(=O)N[C@@H]([C@@H](C)CC)C(=O)O[C@H]1C)[C@@H](C)CC)[C@@H](C)CC
MIC (Bacillus spizizenii): 8 µg/mL (≈ 6.53 µM) | MIC (Staphylococcus aureus [3]): 2 µg/mL (≈ 1.63 µM) | MIC (Staphylococcus aureus [4]): 16 µg/mL (≈ 13.1 µM)

Structure (SMILES): CC[C@H](C)[C@H](NC(=O)[C@@H](Cc1ccccc1)NC)C(=O)N[C@@H](CO)C(=O)N[C@H](CCC(N)=O)C(=O)N[C@@H](C(=O)N[C@H](C(=O)N[C@@H](CO)C(=O)N[C@H]1C(=O)N[C@@H](C)C(=O)N[C@@H](CCCNC(N)=O)C(=O)N[C@@H]([C@@H](C)CC)C(=O)O[C@H]1C)[C@@H](C)CC)[C@@H](C)CC
MIC (Staphylococcus aureus [4]): 16 µg/mL (≈ 12.8 µM)

Structure (SMILES): CC[C@H](C)[C@H](NC(=O)[C@@H](Cc1ccccc1)NC)C(=O)N[C@@H](CO)C(=O)N[C@H](CCC(N)=O)C(=O)N[C@@H](C(=O)N[C@H](C(=O)N[C@@H](CO)C(=O)N[C@H]1C(=O)N[C@@H](C)C(=O)N[C@@H](CCCNC(=N)N)C(=O)N[C@@H]([C@@H](C)CC)C(=O)O[C@H]1C)[C@@H](C)CC)[C@@H](C)CC
MIC (Bacillus subtilis [10]): 0.4 µg/mL (≈ 0.321 µM) | MIC (Staphylococcus aureus [11]): 2 µg/mL (≈ 1.61 µM) | MIC (Staphylococcus aureus [12]): 1.6 µg/mL (≈ 1.29 µM)

Structure (SMILES): CC[C@H](C)[C@H](NC(=O)[C@@H](Cc1ccc(-c2ccccc2)cc1)NC)C(=O)N[C@@H](CO)C(=O)N[C@H](CCCNC(=N)N)C(=O)N[C@@H](C(=O)N[C@H](C(=O)N[C@@H](CO)C(=O)N[C@H]1C(=O)N[C@@H](C)C(=O)N[C@@H](C[C@H]2CNC(=N)N2)C(=O)N[C@@H]([C@@H](C)CC)C(=O)O[C@H]1C)[C@@H](C)CC)[C@@H](C)CC
MIC (Staphylococcus aureus [13]): 0.25 µg/mL (≈ 0.186 µM) | MIC (Staphylococcus aureus [14]): 0.25 µg/mL (≈ 0.186 µM)

Structure (SMILES): CC[C@H](C)[C@H](NC(=O)[C@@H](Cc1ccccc1)NC)C(=O)N[C@@H](CO)C(=O)N[C@H](CCC(N)=O)C(=O)N[C@@H](C(=O)N[C@H](C(=O)N[C@@H](CO)C(=O)N[C@H]1C(=O)N[C@@H](C)C(=O)N[C@@H](CCC/N=C(\N)N(C)C)C(=O)N[C@@H]([C@@H](C)CC)C(=O)O[C@H]1C)[C@@H](C)CC)[C@@H](C)CC
MIC (Staphylococcus aureus [4]): 4 µg/mL (≈ 3.14 µM)

Structure (SMILES): CC[C@H](C)[C@H](NC(=O)[C@H](NC(=O)[C@@H](CCC(N)=O)NC(=O)[C@H](CO)NC(=O)[C@H](CC(C)C)NC(=O)[C@@H](Cc1ccccc1)NC)[C@@H](C)CC)C(=O)N[C@@H](CO)C(=O)N[C@H]1C(=O)N[C@@H](C)C(=O)NC(CCCN)C(=O)N[C@@H]([C@@H](C)CC)C(=O)O[C@H]1C (some centres undefined)
MIC (Staphylococcus aureus [17]): 4 µg/mL (≈ 3.33 µM) | MIC (Staphylococcus aureus [18]): 4 µg/mL (≈ 3.33 µM)
